Measured values reported in patent publication US20120172302A1, “COMPOSITION FOR THE TREATMENT OF BENIGN PROSTATE HYPERPLASIA” (priority 2009, published 2012).
Square brackets hold non-standard residues; d marks the D form. Peptide text beside a SMILES is read from it. * marks the point of attachment. dPhe(4-NHCONH2) = NC(=O)Nc1ccc(C[C@@H](N)C(=O)O)cc1; Dihydroorotyl(S) = O=C1C[C@@H](C(=O)*)NC(=O)N1; dPhe(4-Cl) = N[C@H](Cc1ccc(Cl)cc1)C(=O)O; Phe(4-NH2) = Nc1ccc(C[C@H](N)C(=O)O)cc1; d2Nal = N[C@H](Cc1ccc2ccccc2c1)C(=O)O; Lys(iPr) = CC(C)NCCCC[C@H](N)C(=O)O; d3Pal = N[C@H](Cc1cccnc1)C(=O)O

Legend:
patients with BPH [1] = assay: International Prostate Symptom Score (IPSS) questionnaire, clinical trial in BPH patients; type: in vivo, men; details: for Improvements in mean sum of IPSS scores: 9 and 12 months follow-up
Description: (§1) For each patient, the following parameters were measured or assessed (using the methods discussed below), at time points of screening (e.g. −7 days) day 0 (“baseline”), day 14, day 28 and day 42:
(§2) After the initial 6-week treatment period of the exploratory study had been completed, a 12-month follow-up period looking at long-term efficacy commenced. Interim data of the main efficacy variables (IPSS, IPSS Global QoL, prostate volume, urinary flow, and post-void residual volume—measured as set out below) after 6 months' follow-up are also presented herein Table 1, 2, 3 FIG. 1b), together with some IPSS data at 9 and 12 months (FIG. 1b).
The IPSS was developed in 1991 by the American Urological Association to assess the severity of urinary symptoms related to BPH (Barry, M. J., et al., The American Urological Association symptom index for benign prostatic hyperplasia. The Measurement Committee of the American Urological Association. J Urol, 1992. 148(5): p. 1549-57; discussion 1564). It has been widely used in clinical studies, has undergone extensive validation and its psychometric properties are well documented in both the original version (containing a 1-month recall) as well as the ‘acute’ version used in this study (containing a one-week recall). The WHO has recommended the use of this instrument for the evaluation of BPH and it is considered to be the internationally accepted, standard questionnaire for assessing lower urinary tract symptoms.
The patients were asked to complete the IPSS questionnaire to evaluate their urinary symptoms. The IPSS is a patient-administered questionnaire containing seven items to evaluate symptoms of urinary obstruction (incomplete emptying, frequency, hesitancy, urgency, weak stream, straining, nocturia) over the preceding week. Each urinary symptom question is assigned points from 0 to 5 indicating increasing severity of the particular symptom. The total score can therefore range from 0 to 35 (0-7: mildly symptomatic; 8-19: moderately symptomatic; 20-35: severely symptomatic). A reduction in score over the treatment is indicative of improvement.

patients with BPH [2] = assay: IPSS global quality of life (QoL) question, clinical trial; type: in vivo, men; details: Baseline of 6-month follow-up patients
Description: as §1, §2
Included in the IPSS is one item to evaluate QoL (IPSS-global QoL). The Global QoL Question was developed alongside the IPSS and was officially included as part of the IPSS in 1993 when the WHO formally recommended the IPSS for both symptom and QoL assessment. […] This question assesses the degree to which patients find their symptoms bothersome. Patients are asked about how they would feel if they were to spend the rest of their lives with their prostate symptoms just as they are now. The choices for answering this quality of life question ranged from “delighted” (rating=0) to “terrible” (rating=6).

[3] = Day 42, all treatment groups combined
[4] = Month 6 follow up, 32 mg group, n=7
[5] = Month 6 follow up, 64 mg group, n=4
[6] = Month 6 follow up, 16+16 mg group, n=6
[7] = Month 6 follow up, 32+32 mg group, n=7
[8] = baseline, all treatment groups combined

Q: For `CC(=O)N[C@H](Cc1ccc2ccccc2c1)C(=O)N[C@H](Cc1ccc(Cl)cc1)C(=O)N[C@H](Cc1cccnc1)C(=O)N[C@@H](CO)C(=O)N[C@@H](Cc1ccc(NC(=O)[C@@H]2CC(=O)NC(=O)N2)cc1)C(=O)N[C@H](Cc1ccc(NC(N)=O)cc1)C(=O)N[C@@H](CC(C)C)C(=O)N[C@@H](CCCCNC(C)C)C(=O)N1CCC[C@H]1C(=O)N[C@H](C)C(N)=O` [Degarelix, D-Alaninamide, N-acetyl-3-(2-naphthalenyl)-D-alanyl-4-chloro-D-phenylalanyl-3-(3-pyridinyl)-D-alanyl-L-seryl-4-[[[(4S)-hexahydro-2,6-dioxo-4-pyrimidinyl]carbonyl]amino]-L-phenylalanyl-4-[(aminocarbonyl)amino]-D-phenylalanyl-L leucyl-N6-(1-methylethyl)-L-lysyl-L-prolyl] (Ac-[d2Nal][dPhe(4-Cl)][d3Pal]S[Phe(4-NH2)](Dihydroorotyl(S))[dPhe(4-NHCONH2)]L[Lys(iPr)]P[dA]-NH2), which “IPSS Q1 (incomplete emptying), Q2 (frequency), Q4 (urgency) score, change from baseline” value (patients with BPH [1]; 32 mg dose, 28 and 42 day timepoints (FIG. 1c)) is on record?
A: Its value is “pronounced effect”.

Q: What about the “Improvements in mean sum of IPSS scores” value (patients with BPH [1]; 32 mg group (FIG. 1b)) of the same molecule?
A: The value was “still indicated”.

Q: And the “Improvements in mean sum of IPSS scores” value (patients with BPH [1]; 32+32 mg group (FIG. 1b))?
A: The value was “still indicated”.

Q: What about the “Mean IPSS score” value (patients with BPH [1]; Baseline of 6 month follow up patients, 32 mg group, n=7) of the same molecule?
A: The value was 22.0 (n = 7).

Q: What about the “Mean IPSS score” value (patients with BPH [1]; Baseline of 6 month follow up patients, 64 mg group, n=4) of the same molecule?
A: Its value is 20.0 (n = 4).

Q: What about the “Mean IPSS score” value (patients with BPH [1]; Baseline of 6 month follow up patients, 16+16 mg group, n=6) of the same molecule?
A: Its value is 18.8 (n = 6).

Q: What about the “Mean IPSS score” value (patients with BPH [1]; Baseline of 6 month follow up patients, 32+32 mg group, n=7) of the same molecule?
A: Its value is 19.3 (n = 7).

Q: And the “Mean IPSS score” value (patients with BPH [1]; Baseline, 32 mg group (one s.c. injection Day 0), N=12)?
A: The value was 22.3 (6.5).

Q: And the “Mean IPSS score” value (patients with BPH [1]; Baseline, 64 mg group (one s.c. injection Day 0), N=13)?
A: The value was 21.8 (6.2).

Q: And the “Mean IPSS score” value (patients with BPH [1]; Baseline, 16+16 mg group (16 mg s.c. Day 0 and Day 14), N=13)?
A: The value was 17.7 (4.5).

Q: And the “Mean IPSS score” value (patients with BPH [1]; Baseline, 32+32 mg group (32 mg s.c. Day 0 and Day 14), N=12)?
A: Its value is 18.2 (5.4).

Q: And the “IPSS mean change from baseline” value (patients with BPH [1]; Day 14, 32 mg group)?
A: The value was −7.8 (8.7).

Q: What about the “IPSS mean change from baseline” value (patients with BPH [1]; Day 14, 64 mg group) of the same molecule?
A: The value was −8.0 (4.0).

Q: What about the “IPSS mean change from baseline” value (patients with BPH [1]; Day 14, 16+16 mg group) of the same molecule?
A: The value was −3.2 (5.4).

Q: And the “IPSS mean change from baseline” value (patients with BPH [1]; Day 14, 32+32 mg group)?
A: Its value is −5.5 (5.0).

Q: And the “IPSS mean change from baseline” value (patients with BPH [1]; Day 42, 32 mg group)?
A: Its value is −13.2 (6.6).

Q: What about the “Mean IPSS score” value (patients with BPH [1]; Day 42, 32 mg group) of the same molecule?
A: Its value is 9.1 (6.2).

Q: And the “Number of patients in IPSS category "severe"” value (patients with BPH [1]; Day 42, 32 mg group)?
A: Its value is 1 patients.

Q: What about the “Percentage responders (decrease in IPSS of at least 30% vs baseline)” value (patients with BPH [1]; Day 42, 32 mg group) of the same molecule?
A: The value was 92%.

Q: What about the “IPSS mean change from baseline” value (patients with BPH [1]; Day 42, 64 mg group) of the same molecule?
A: The value was −10.0 (5.0).

Q: And the “Mean IPSS score” value (patients with BPH [1]; Day 42, 64 mg group)?
A: The value was 11.8 (5.9).

Q: What about the “Number of patients in IPSS category "severe"” value (patients with BPH [1]; Day 42, 64 mg group) of the same molecule?
A: The value was 1 patients.

Q: What about the “Percentage responders (decrease in IPSS of at least 30% vs baseline)” value (patients with BPH [1]; Day 42, 64 mg group) of the same molecule?
A: The value was 85%.

Q: And the “IPSS mean change from baseline” value (patients with BPH [1]; Day 42, 64 mg group, listed as degarelix)?
A: The value was −10.0 (SD=5.0).

Q: And the “IPSS mean change from baseline” value (patients with BPH [1]; Day 42, 16+16 mg group)?
A: The value was −6.1 (4.6).

Q: And the “Mean IPSS score” value (patients with BPH [1]; Day 42, 16+16 mg group)?
A: Its value is 11.6 (4.5).

Q: And the “Percentage responders (decrease in IPSS of at least 30% vs baseline)” value (patients with BPH [1]; Day 42, 16+16 mg group)?
A: The value was 54%.

Q: What about the “IPSS mean change from baseline” value (patients with BPH [1]; Day 42, 16+16 mg group, listed as degarelix) of the same molecule?
A: The value was −6.1 (SD=4.6).

Q: What about the “IPSS mean change from baseline” value (patients with BPH [1]; Day 42, 32+32 mg group) of the same molecule?
A: The value was −9.6 (4.7).

Q: And the “Mean IPSS score” value (patients with BPH [1]; Day 42, 32+32 mg group)?
A: The value was 8.6 (5.7).

Q: And the “Percentage responders (decrease in IPSS of at least 30% vs baseline)” value (patients with BPH [1]; Day 42, 32+32 mg group)?
A: The value was 83%.

Q: And the “IPSS mean change from baseline” value (patients with BPH [1]; Day 42, 32+32 mg group, listed as degarelix)?
A: The value was −9.6 (SD=4.7).

Q: And the “Number of patients in IPSS category "mild"” value (patients with BPH [1]; [3])?
A: Its value is 17 patients.

Q: And the “Number of patients in IPSS category "moderate"” value (patients with BPH [1]; [3])?
A: The value was 31 patients.

Q: What about the “Number of patients in IPSS category "severe"” value (patients with BPH [1]; [3]) of the same molecule?
A: The value was 2 patients.

Q: What about the “IPSS mean change from baseline” value (patients with BPH [1]; [4]) of the same molecule?
A: Its value is −11.6 (8.3).

Q: And the “Mean IPSS score” value (patients with BPH [1]; [4])?
A: Its value is 10.4 (6.3).

Q: And the “Percentage responders (decrease in IPSS of at least 30% vs baseline)” value (patients with BPH [1]; [4])?
A: The value was 86%.

Q: What about the “IPSS mean change from baseline” value (patients with BPH [1]; [5]) of the same molecule?
A: Its value is −4.0 (3.6).

Q: And the “Mean IPSS score” value (patients with BPH [1]; [5])?
A: The value was 16.0 (8.7).

Q: What about the “Percentage responders (decrease in IPSS of at least 30% vs baseline)” value (patients with BPH [1]; [5]) of the same molecule?
A: Its value is 5%.

Q: What about the “IPSS mean change from baseline” value (patients with BPH [1]; [6]) of the same molecule?
A: The value was −2.5 (4.3).

Q: What about the “Mean IPSS score” value (patients with BPH [1]; [6]) of the same molecule?
A: The value was 16.3 (4.7).

Q: And the “Percentage responders (decrease in IPSS of at least 30% vs baseline)” value (patients with BPH [1]; [6])?
A: The value was 33%.

Q: And the “IPSS mean change from baseline” value (patients with BPH [1]; [7])?
A: Its value is −12.6 (9.6).

Q: What about the “Mean IPSS score” value (patients with BPH [1]; [7]) of the same molecule?
A: The value was 6.7 (4.5).

Q: And the “Percentage responders (decrease in IPSS of at least 30% vs baseline)” value (patients with BPH [1]; [7])?
A: The value was 86%.

Q: And the “Number of patients in IPSS category "moderate"” value (patients with BPH [1]; [8])?
A: Its value is 27 patients.

Q: What about the “Number of patients in IPSS category "severe"” value (patients with BPH [1]; [8]) of the same molecule?
A: The value was 23 patients.

Q: What about the “Mean IPSS global QoL score” value (patients with BPH [2]; 32 mg group, n=7) of the same molecule?
A: The value was 2.8 (n = 7).

Q: And the “Mean IPSS global QoL score” value (patients with BPH [2]; 64 mg group, n=4)?
A: Its value is 4.6 (n = 4).
